We go through 34 molecules from paper PMC9457997, “2-(Nitroaryl)-5-Substituted-1,3,4-Thiadiazole Derivatives with Antiprotozoal Activities: In Vitro and In Vivo Study” (Molecules, 2022).

In brackets after ≈: the same amount, converted by molar mass. Where two headings read alike, the source gives them in different places.

One series relates to T. b. gambiense. The following applies: gambiense HAT patients; cited from earlier work.
The subject of series [1] is T. b. rhodesiense, strain STIB 900 trypomastigotes. Nature of the series: In vitro activity against T. b. rhodesiense STIB 900 bloodstream forms. It counts as cell-based. The following applies: Trypanosoma brucei, read-out: T. b. rhodesiense IC50.
Another series in a line: in vitro. The following applies: rat.
The subject of series [2] is T. cruzi, strain Tulahuen C4 amastigotes. Nature of the series: In vitro activity against T. cruzi amastigotes. It counts as cell-based. The following applies: Trypanosoma cruzi, read-out: T. cruzi IC50. As to the method:
Although all of the compounds had been tested against Leishmania major promastigotes in our previous works, to deeper evaluate the antitrypanosomatid potential of the selected nitroimidazole derivatives, their activity was measured against L. donovani axenic amastigotes and T. cruzi amastigotes (Table 2). Miltefosine and benznidazole were used as reference drugs. Compounds 18a and 18g were also tested against L. donovani intracellular amastigotes in peritoneal murine macrophages in a further assay. […]. In vitro activity against the protozoan parasites T. b. rhodesiense, T.cruzi, L. donovani and cytotoxicity assessment against L6 cells were determined as reported previously. The following strains, parasite forms, and positive controls were used: T. b. rhodesiense STIB 900 bloodstream forms, melarsoprol (received from WHO, Arsobal Sanofi); T.cruzi Tulahuen C2C4 intracellular amastigotes, benznidazole (received from DNDi synthesized by Epichem Pty Ltd., Murdoch, Australia); L. donovani MHOM-ET-67/L82 axenically grown amastigotes and intracellular amastigotes, miltefosine (Sigma M5571). L6 rat skeletal myoblasts (ATCC CRL-1458), podophyllotoxin (Sigma P4405).

Series [3] deals with L. donovani, strain MHOM-ET-67/L82 axenically grown amastigotes. Nature of the series: In vitro activity against L. donovani axenic amastigotes. It counts as cell-based. The following applies: for IC50: Leishmania donovani, strain MHOM-ET-67/L82 axenically grown amastigotes, means of two independent assays; for TDR criteria class against L. donovani amastigotes: TDR criteria for antiparasitic activity. On the procedure:
(§1) Miltefosine and benznidazole were used as reference drugs. […] In vitro activity against the protozoan parasites T. b. rhodesiense, T.cruzi, L. donovani and cytotoxicity assessment against L6 cells were determined as reported previously. The following strains, parasite forms, and positive controls were used: T. b. rhodesiense STIB 900 bloodstream forms, melarsoprol (received from WHO, Arsobal Sanofi); T.cruzi Tulahuen C2C4 intracellular amastigotes, benznidazole (received from DNDi synthesized by Epichem Pty Ltd., Murdoch, Australia); L. donovani MHOM-ET-67/L82 axenically grown amastigotes and intracellular amastigotes, miltefosine (Sigma M5571).

Series [4] relates to T. b. rhodesiense STIB 900. Nature of the series: T. b. rhodesiense STIB 900 acute mouse model of HAT. The following applies: for Cured/Infected / Mean Survival Days (MSD): 4 × 50 mg/kg i.p., acute mouse model STIB 900. It counts as in vivo. As to the method:
[…]. All of these compounds were administered at an intraperitoneal dose of 50 mg/kg/day for 4 days. […] A total of three of the four mice treated with morpholine derivative 18b were cured and the parasite was not found in the blood of one mouse until day 60 of infection. […] All of the mice treated with compound 18f survived 60 days, but one mouse was parasite positive. Compound 18d presented the least cure rate; a total of three mice were parasite positive and died between days 15 and 20, and one mouse survived.
The in vivo efficacy was determined in the T. b. rhodesiense STIB 900 acute mouse model that mimics the first stage of the disease as described earlier. In vivo efficacy studies in mice were conducted at the Swiss Tropical and Public Health Institute (Basel) (License number 2813), according to the rules and regulations for the protection of animal rights (“Tierschutzverordnung”) of the Swiss “Bundesamt für Veterinärwesen”. They were approved by the veterinary office of Canton Basel-Stadt, Switzerland.

Another series relates to T. b. brucei. The following applies: cited from earlier work.
Series [5] relates to L. donovani intracellular amastigotes in peritoneal murine macrophages. Nature of the series: In vitro activity against L. donovani intracellular amastigotes. The series is classed as cell-based. As to conditions: Leishmania donovani, Macrophage, means of two independent assays. As to the method: as §1
The next series concerns T. brucei. As to conditions: cited from earlier work.
Another series in a line: Cytotoxicity in L6 cells. As to conditions: rat.
Another series relates to T. b. rhodesiense. The following applies: cited from earlier work.
The test system of the next series is HAT mouse model. The following applies: cited from earlier work.
Details of series [6]: method as in PMID 29191556. As to conditions: cited from earlier work.
Where [7] appears, read: strain STIB 900 trypomastigotes (BSF form), means of two independent assays.
The mark [8] stands for this setting: read-out: IC50 against T. b. brucei.
Where [9] appears, read: read-out: IC50 against T. b. rhodesiense.

On to `CSc1ccc(OCc2ncc([N+](=O)[O-])n2C)cc1` [Fexinidazole], for which the cure rate in the series on T. b. gambiense is reported as 91%.

Turning to `O=[N+]([O-])c1ccc(-c2nnc(N3CCNCC3)s2)s1` [Compound 17c], the IC50 in [1] (setting [7]) was 346 nM; in “in vitro” it was 6380 nM.

In the case of `Cn1c([N+](=O)[O-])cnc1-c1nnc(N2CCOCC2)s1` [Compound 18b], the IC50 amounted to 145 nM in series [1] (setting [7]), 294 nM in series [2], 445 nM in series [3] and 265000 nM in “in vitro”. The “TDR criteria class against L. donovani amastigotes” value (shortened to “TDR criteria class”) in [3] is listed as “active”. Also, the Cured/Infected in series [4] is 3/4. Further, the “Mean Survival Days (MSD)” value in series [4] was over 60 days.

Regarding `Cn1c([N+](=O)[O-])cnc1-c1nnc(N2CCNCC2)s1` [Compound 18c], the IC50 in series [1] (setting [7]) is 12 nM; in series [2], 125 nM; in series [3], 3230 nM; in the series “in vitro” it was 140000 nM. In addition, the death during treatment entry in series [4] (50 mg/kg/day i.p., mouse excluded from the experimental group) is on record as “One mouse died on day six”. In addition, in series [4], the Cured/Infected is recorded as 3/3. The “Mean Survival Days (MSD)” value in series [4] was over 60 days.

As for `O=C1NC(c2ccccc2)=CN2C=C([N+](=O)[O-])NC12` (stereo not drawn) [Compound 5a], the IC50 in the series with T. b. brucei (read-out: IC50 against T. brucei brucei) was 220 nM.

As to `Cn1c([N+](=O)[O-])cnc1-c1nnc(N2CCN(C(=O)c3ccccc3)CC2)s1` [Compound 18g], the IC50 in [2] was 300 nM. In series [3], the “TDR criteria class” value is “active”. Besides, the cure rate in series [4] (50 mg/kg/day i.p. for 4 days, until 60 days after infection) is 100%. Further, in [4], the Cured/Infected is reported as 4/4 and the “Mean Survival Days (MSD)” value is over 60 days.

Turning to `O=c1c2nc([N+](=O)[O-])cn2ccn1Cc1ccc(-c2ccc(OC(F)(F)F)cc2)cn1` [Compound 6], the IC50 with T. b. brucei (setting [8]) was 2 nM.

For the molecule `CN1CCN(c2nnc(-c3ccc([N+](=O)[O-])s3)s2)CC1` [Compound 17d], the half-maximal inhibitory concentration (IC50) amounted to 1150 nM in [1] (setting [7]) and 40800 nM in the series “in vitro”.

As to `O=[N+]([O-])c1ccc(-c2nnc(N3CCN(c4ccccc4)CC3)s2)o1` [Compound 16e], the half-inhibitory concentration (IC50) came to 540 nM in series [1] (setting [7]) and 6430 nM in the series “in vitro”.

Take `CC(=O)N1CCN(c2nnc(-c3ccc([N+](=O)[O-])o3)s2)CC1` [Compound 16f]: the figures for the IC50 (in series [1] (setting [7]); in the series “in vitro”) were 81 nM and 2490 nM, respectively.

For `Cn1c([N+](=O)[O-])cnc1-c1nnc(N2CCCCC2)s1` [Compound 18a], the half-inhibitory concentration (IC50) in [1] (setting [7]) was 510 nM; in [2] it was 897 nM; in series [3] it was 476 nM; in series [5], 4760 nM; in the series “in vitro” it was over 306000 nM. The “TDR criteria class” value in series [3] was “active”.

As to `CC(C)N(CCO/N=C/c1ccc([N+](=O)[O-])s1)C(C)C` [Compound 11], the “MIC, trypanocidal activity” value in the series with T. brucei is listed as 1 µg/mL (≈ 3.34 µM).

On to `O=[N+]([O-])c1ccc(-c2nnc(N3CCNCC3)s2)o1` [Compound 16c], for which the IC50 amounted to 60 nM in [1] (setting [7]) and 1060 nM in the series “in vitro”.

As for `O=C(Cn1ccnc1[N+](=O)[O-])NCc1ccccc1` [Benznidazole, reference compound], the half-inhibitory concentration (IC50) in series [2] is 1430 nM.

`O=[N+]([O-])c1ccc(-c2nnc(N3CCCCC3)s2)s1` [Compound 17a]: the values for the 50% inhibitory concentration (IC50) (in series [1] (setting [7]); in “in vitro”) were 647 nM and 226000 nM, respectively.

The molecule `COc1cc([C@@H]2c3cc4c(cc3[C@H](O)[C@H]3COC(=O)[C@H]23)OCO4)cc(OC)c1OC` [Podophyllotoxin] returned a half-maximal inhibitory concentration (IC50) in “Cytotoxicity in L6 cells” of 6 nM.

Take `Cn1c([N+](=O)[O-])cnc1-c1nnc(N2CCN(c3ccccc3)CC2)s1` [Compound 18e]: the concentration for half-maximal inhibition (IC50) is 285 nM in series [1] (setting [7]) and 163000 nM in the series “in vitro”.

On to `CN1CCN(c2nnc(-c3ncc([N+](=O)[O-])n3C)s2)CC1` [Compound 18d], for which the half-inhibitory concentration (IC50) was 142 nM in series [1] (setting [7]), 462 nM in series [2] and over 290000 nM in “in vitro”. Also, the Cured/Infected in [4] is 1/4. Moreover, in series [4], the “Mean Survival Days (MSD)” value is over 27.75 days.

Turning to `CCCCCCCCCCCCCCCCOP(=O)([O-])OCC[N+](C)(C)C` [Miltefosine, reference compound], the IC50 in [3] amounted to 359 nM; in series [5], 1840 nM.

In the case of `C=CCOc1ccc(NC(=O)c2ccc([N+](=O)[O-])o2)cc1C(F)(F)F` [Compound 9], the results for the half-maximal inhibitory concentration (IC50) in the series with T. b. rhodesiense (setting [9]) and in the series on T. b. brucei (setting [8]) were 2.9 nM and 2.4 nM, respectively.

As for `CC(=O)N1CCN(c2nnc(-c3ccc([N+](=O)[O-])s3)s2)CC1` [Compound 17f], the half-inhibitory concentration (IC50) amounted to 1890 nM in [1] (setting [7]) and 225000 nM in “in vitro”.

Turning to `O=[N+]([O-])c1cn2c(n1)[S+]([O-])CC(OCc1ccc(OC(F)(F)F)cc1)C2` (stereo not drawn) [Compound 3], the “cure rate in an acute infection mouse model of HAT” value with HAT mouse model is recorded as 100%. In addition, the metabolic stability result in [6] is reported as “good metabolic stability”.

With `O=[N+]([O-])c1ccc(-c2nnc(N3CCOCC3)s2)o1` [Compound 16b], the half-maximal inhibitory concentration (IC50) was found to be 914 nM in series [1] (setting [7]) and 5670 nM in the series “in vitro”.

On to `Nc1nc(N)nc(Nc2ccc([As]3SCC(CO)S3)cc2)n1` (stereo not drawn) [Melarsoprol, reference compound], for which the IC50 in series [1] was determined as 4 nM; in “Cytotoxicity in L6 cells” it was 9600 nM.

Turning to `O=[N+]([O-])c1ccc(-c2nnc(N3CCOCC3)s2)s1` [Compound 17b], the figures for the IC50 (in series [1] (setting [7]); in the series “in vitro”) were 1180 nM and over 302000 nM, respectively.

As for `O=[N+]([O-])c1ccc(-c2nnc(N3CCCCC3)s2)o1` [Compound 16a], the IC50 was 242 nM in [1] (setting [7]) and 2490 nM in “in vitro”.

As for `CN(C)c1nc(N/N=C/c2ccc([N+](=O)[O-])o2)nc(N(C)C)n1` [Compound 7], in the series on T. b. rhodesiense (read-out: IC50 against trypomastigotes of T. brucei rhodesiense), the concentration for half-maximal inhibition (IC50) was 3 nM.

As for `O=C(N/N=C\c1coc([N+](=O)[O-])c1)C12CC3CC(C1)CC(C(=O)N/N=C/c1ccc([N+](=O)[O-])o1)(C3)C2` [Compound 10], the IC50 in the series with T. brucei (read-out: IC50 against T. brucei) was 75 nM.

On to `O=[N+]([O-])c1nccn1CCCNc1ccnc2c(Cl)cccc12` [Compound 2], for which the IC50 in the series with T. b. rhodesiense (setting [9]) was 1290 nM.

For `O=C(c1ccccc1)N1CCN(c2nnc(-c3ccc([N+](=O)[O-])s3)s2)CC1` [Compound 17g], the IC50 in series [1] (setting [7]) was found to be 438 nM; in “in vitro”, 51000 nM.

Take `O=[N+]([O-])c1ccc(-c2nnc(N3CCN(c4ccccc4)CC3)s2)s1` [Compound 17e]: the concentration for half-maximal inhibition (IC50) in series [1] (setting [7]) is 11800 nM; in the series “in vitro”, 56500 nM.

On to `CC(=O)N1CCN(c2nnc(-c3ncc([N+](=O)[O-])n3C)s2)CC1` [Compound 18f], for which the IC50 in [1] (setting [7]) was 89 nM; in series [2] it was 468 nM; in the series “in vitro” it was over 267000 nM. For the same molecule, the Cured/Infected in series [4] is on record as 3/4. Moreover, the “Mean Survival Days (MSD)” value in series [4] was over 60 days.

For `CCCCCCCOC(=O)N/N=C/c1ccc([N+](=O)[O-])o1` [Compound 8], in the series on T. brucei (read-out: IC50 against the BSF form of T. brucei), the concentration for half-maximal inhibition (IC50) was 120 nM.

Regarding `CN1CCN(c2nnc(-c3ccc([N+](=O)[O-])o3)s2)CC1` [Compound 16d], the results for the 50% inhibitory concentration (IC50) (in [1] (setting [7]); in “in vitro”) were 241 nM and 1360 nM, respectively.

Usually IC50 stands for the concentration needed to halve the response being measured.
